{"source": "PubChem BioAssay (NCI)", "assay_in_all_cases": "NCI tumour cell line growth inhibition, 48 h", "key": {"HCT-116 colon": {"test_system": "HCT-116 colon"}, "LOX IMVI melanoma": {"test_system": "LOX IMVI melanoma"}, "OVCAR-8 ovarian": {"test_system": "OVCAR-8 ovarian"}, "SNB-19 CNS": {"test_system": "SNB-19 CNS"}, "NCI-H460 lung": {"test_system": "NCI-H460 lung"}, "HCC-2998 colon": {"test_system": "HCC-2998 colon"}, "SK-MEL-28 melanoma": {"test_system": "SK-MEL-28 melanoma"}, "RPMI-8226 leukemia": {"test_system": "RPMI-8226 leukemia"}, "NCI-H522 lung": {"test_system": "NCI-H522 lung"}, "786-0 renal": {"test_system": "786-0 renal"}, "CAKI-1 renal": {"test_system": "CAKI-1 renal"}, "CCRF-CEM leukemia": {"test_system": "CCRF-CEM leukemia"}, "NCI/ADR-RES ovarian": {"test_system": "NCI/ADR-RES ovarian"}, "M14 melanoma": {"test_system": "M14 melanoma"}, "UACC-257 melanoma": {"test_system": "UACC-257 melanoma"}, "TK-10 renal": {"test_system": "TK-10 renal"}, "OVCAR-3 ovarian": {"test_system": "OVCAR-3 ovarian"}, "EKVX NSCLC": {"test_system": "EKVX NSCLC"}, "HT29 colon": {"test_system": "HT29 colon"}, "SK-MEL-2 melanoma": {"test_system": "SK-MEL-2 melanoma"}, "HOP-92 NSCLC": {"test_system": "HOP-92 NSCLC"}, "NCI-H226 lung": {"test_system": "NCI-H226 lung"}, "MDA-MB-435": {"test_system": "MDA-MB-435"}, "SNB-75 CNS": {"test_system": "SNB-75 CNS"}, "SW-620 colon": {"test_system": "SW-620 colon"}, "PC-3 prostate": {"test_system": "PC-3 prostate"}, "BT-549 breast": {"test_system": "BT-549 breast"}}, "note": "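Each compound was tested at five concentrations against cells in 96-well plates for 48 hours. GI50 = concentration required for 50% inhibition of growth. At the TGI there is no net growth.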"}
{"smiles": "COc1cc2nc(-c3ccc(C(F)(F)F)cc3)cc(OCCCNCC3CCCO3)c2cc1OC", "note": "(stereo not drawn)", "values": [{"measurement": "TGI", "setting": "HCT-116 colon", "value": 14.8, "unit": "µM"}, {"measurement": "GI50", "setting": "LOX IMVI melanoma", "value": 1.61, "unit": "µM"}, {"measurement": "TGI", "setting": "LOX IMVI melanoma", "value": 4.33, "unit": "µM"}, {"measurement": "GI50", "setting": "OVCAR-8 ovarian", "value": 3.72, "unit": "µM"}, {"measurement": "TGI", "setting": "OVCAR-8 ovarian", "value": 16.6, "unit": "µM"}, {"measurement": "GI50", "setting": "SNB-19 CNS", "value": 13.3, "unit": "µM"}, {"measurement": "TGI", "setting": "SNB-19 CNS", "value": 28.4, "unit": "µM"}, {"measurement": "GI50", "setting": "NCI-H460 lung", "value": 3.89, "unit": "µM"}, {"measurement": "TGI", "setting": "NCI-H460 lung", "value": 15.8, "unit": "µM"}, {"measurement": "GI50", "setting": "HCC-2998 colon", "value": 10.3, "unit": "µM"}, {"measurement": "TGI", "setting": "HCC-2998 colon", "value": 23.6, "unit": "µM"}, {"measurement": "GI50", "setting": "SK-MEL-28 melanoma", "value": 5.77, "unit": "µM"}, {"measurement": "TGI", "setting": "SK-MEL-28 melanoma", "value": 19.3, "unit": "µM"}, {"measurement": "GI50", "setting": "RPMI-8226 leukemia", "value": 2.39, "unit": "µM"}, {"measurement": "TGI", "setting": "RPMI-8226 leukemia", "value": 12.2, "unit": "µM"}, {"measurement": "GI50", "setting": "NCI-H522 lung", "value": 3.05, "unit": "µM"}, {"measurement": "TGI", "setting": "NCI-H522 lung", "value": 13.8, "unit": "µM"}, {"measurement": "GI50", "setting": "786-0 renal", "value": 6.44, "unit": "µM"}, {"measurement": "TGI", "setting": "786-0 renal", "value": 21.1, "unit": "µM"}, {"measurement": "GI50", "setting": "CAKI-1 renal", "value": 1.74, "unit": "µM"}, {"measurement": "TGI", "setting": "CAKI-1 renal", "value": 5.32, "unit": "µM"}, {"measurement": "GI50", "setting": "CCRF-CEM leukemia", "value": 6.61, "unit": "µM"}, {"measurement": "TGI", "setting": "CCRF-CEM leukemia", "value": 24.4, "unit": "µM"}, {"measurement": "GI50", "setting": "NCI/ADR-RES ovarian", "value": 6.92, "unit": "µM"}, {"measurement": "TGI", "setting": "NCI/ADR-RES ovarian", "value": 24.5, "unit": "µM"}, {"measurement": "GI50", "setting": "M14 melanoma", "value": 3.09, "unit": "µM"}, {"measurement": "TGI", "setting": "M14 melanoma", "value": 12.4, "unit": "µM"}, {"measurement": "GI50", "setting": "UACC-257 melanoma", "value": 2.01, "unit": "µM"}, {"measurement": "TGI", "setting": "UACC-257 melanoma", "value": 4.79, "unit": "µM"}, {"measurement": "GI50", "setting": "TK-10 renal", "value": 12.2, "unit": "µM"}, {"measurement": "TGI", "setting": "TK-10 renal", "value": 25.3, "unit": "µM"}, {"measurement": "GI50", "setting": "OVCAR-3 ovarian", "value": 12.3, "unit": "µM"}, {"measurement": "TGI", "setting": "OVCAR-3 ovarian", "value": 27.5, "unit": "µM"}, {"measurement": "GI50", "setting": "EKVX NSCLC", "value": 4.22, "unit": "µM"}, {"measurement": "TGI", "setting": "EKVX NSCLC", "value": 18.6, "unit": "µM"}, {"measurement": "GI50", "setting": "HT29 colon", "value": 2.98, "unit": "µM"}, {"measurement": "TGI", "setting": "HT29 colon", "value": 11.2, "unit": "µM"}, {"measurement": "GI50", "setting": "SK-MEL-2 melanoma", "value": 13.7, "unit": "µM"}, {"measurement": "TGI", "setting": "SK-MEL-2 melanoma", "value": 26.9, "unit": "µM"}, {"measurement": "GI50", "setting": "HOP-92 NSCLC", "value": 1.57, "unit": "µM"}, {"measurement": "TGI", "setting": "HOP-92 NSCLC", "value": 7.85, "unit": "µM"}, {"measurement": "GI50", "setting": "NCI-H226 lung", "value": 2.51, "unit": "µM"}, {"measurement": "TGI", "setting": "NCI-H226 lung", "value": 8.6, "unit": "µM"}, {"measurement": "GI50", "setting": "MDA-MB-435", "value": 3.13, "unit": "µM"}, {"measurement": "TGI", "setting": "MDA-MB-435", "value": 11.7, "unit": "µM"}, {"measurement": "GI50", "setting": "SNB-75 CNS", "value": 8.45, "unit": "µM"}, {"measurement": "TGI", "setting": "SNB-75 CNS", "value": 21.9, "unit": "µM"}, {"measurement": "GI50", "setting": "SW-620 colon", "value": 8.16, "unit": "µM"}, {"measurement": "TGI", "setting": "SW-620 colon", "value": 22, "unit": "µM"}, {"measurement": "GI50", "setting": "PC-3 prostate", "value": 3.8, "unit": "µM"}, {"measurement": "TGI", "setting": "PC-3 prostate", "value": 17.2, "unit": "µM"}, {"measurement": "GI50", "setting": "BT-549 breast", "value": 6.92, "unit": "µM"}, {"measurement": "TGI", "setting": "BT-549 breast", "value": 21.1, "unit": "µM"}]}
